Biological target: GABAA receptor (TBPS binding site), rat brain cortical membranes
Test: [35S]-TBPS binding assay, rat brain cortical membranes in the presence of 5 mM GABA
Conditions: inhibition of 3 nM [35S]-TBPS binding
Procedure: [^35S]-t-Butylbicyclophosphorothionate (TBPS) binding assays using rat brain cortical membranes in the presence of 5 mM GABA has been described (Gee et al, J. Pharmacol. Exp. Ther. 1987, 241, 346-353; Hawkinson et al, Mol. Pharmacol. 1994, 46, 977-985; Lewin, A. H et al., Mol. Pharmacol. 1989, 35, 189-194).
Briefly, cortices are rapidly removed following decapitation of carbon dioxide-anesthetized Sprague-Dawley rats (200-250 g). The cortices are homogenized in 10 volumes of ice-cold 0.32 M sucrose using a glass/teflon homogenizer and centrifuged at 1500×g for 10 min at 4° C. The resultant supernatants are centrifuged at 10,000×g for 20 min at 4° C. to obtain the P2 pellets. The P2 pellets are resuspended in 200 mM NaCl/50 mM Na—K phosphate pH 7.4 buffer and centrifuged at 10,000×g for 10 min at 4° C. This washing procedure is repeated twice and the pellets are resuspended in 10 volumes of buffer. Aliquots ([…]) of the membrane suspensions are incubated with 3 nM [^35S]-TBPS and […] aliquots of test drug dissolved in dimethyl sulfoxide (DMSO) (final 0.5%) in the presence of 5 mM GABA. The incubation is brought to a final volume of 1.0 mL with buffer. Nonspecific binding is determined in the presence of […] and ranged from 15 to 25%. Following a 90 min incubation at room temp, the assays are terminated by filtration through glass fiber filters (Schleicher and Schuell No. 32) using a cell harvester (Brandel) and rinsed three times with ice-cold buffer. Filter bound radioactivity is measured by liquid scintillation spectrometry. Non-linear curve fitting of the overall data for each drug averaged for each concentration is done using Prism (GraphPad). […] The concentration of test compound producing 50% inhibition (IC50) of specific binding and the maximal extent of inhibition (Imax) are determined for the individual experiments with the same model used for the overall data and then the means±SEM.s of the individual experiments are calculated.
Various compounds are or can be screened to determine their potential as modulators of [^35S]-TBPS binding in vitro. These assays are or can be performed in accordance with the above

SMILES	IC50
CCOC[C@@]1(O)CC[C@H]2[C@H](CC[C@@H]3[C@@H]2CC[C@]2(C)[C@@H](C(=O)Nc4cnc(C#N)cn4)CC[C@@H]32)C1 [Example 28]	< 100 nM
CCOC[C@@]1(O)CC[C@H]2[C@H](CC[C@@H]3[C@@H]2CC[C@]2(C)[C@@H](C(=O)Nc4ccc(C#N)nn4)CC[C@@H]32)C1 [Example 29]	< 100 nM
CCOC[C@@]1(O)CC[C@H]2[C@H](CC[C@@H]3[C@@H]2CC[C@]2(C)[C@@H](C(=O)Nc4cc(C)nn4C)CC[C@@H]32)C1 [Example 30]	< 100 nM
CCOC[C@@]1(O)CC[C@@]2(C)[C@H](CC[C@@H]3[C@@H]2CC[C@]2(C)[C@@H](C(=O)Nc4ccc(C#N)cn4)CC[C@@H]32)C1 [Example 31]	< 100 nM
COC[C@@]1(O)CC[C@@]2(C)[C@@H](CC[C@@H]3[C@@H]2CC[C@]2(C)[C@@H](C(=O)Nc4cccnc4C)CC[C@@H]32)C1 [Example 32]	< 100 nM
CCOC[C@@]1(O)CC[C@@]2(CC)[C@H](CC[C@H]3[C@@H]4CC[C@H](C(=O)Nc5ccc(C#N)cn5)[C@@]4(C)CC[C@@H]32)C1 [Example 33]	< 100 nM
CCOC[C@@]1(O)CC[C@@]2(CC)[C@H](CC[C@H]3[C@@H]4CC[C@H](C(=O)Nc5cc(C#N)nn5C)[C@@]4(C)CC[C@@H]32)C1 [Example 35]	< 100 nM
CCOC[C@@]1(O)CC[C@@]2(CC)[C@H](CC[C@H]3[C@@H]4CC[C@H](C(=O)Nc5cc(C#N)n(C)n5)[C@@]4(C)CC[C@@H]32)C1 [Example 36]	< 100 nM
CCOC[C@@]1(O)CC[C@H]2[C@H](CC[C@@H]3[C@@H]2CC[C@]2(C)[C@@H](C(=O)Nc4cc(C#N)nn4C)CC[C@@H]32)C1 [Example 37]	< 100 nM
COC[C@@]1(O)CC[C@H]2[C@H](CC[C@@H]3[C@@H]2CC[C@]2(C)[C@@H](C(=O)Nc4cccc(C)n4)CC[C@@H]32)C1 [Example 38]	< 100 nM
COC[C@@]1(O)CC[C@H]2[C@H](CC[C@@H]3[C@@H]2CC[C@]2(C)[C@@H](C(=O)Nc4ncccc4Cl)CC[C@@H]32)C1 [Example 39]	100 to 1000 nM
COC[C@@]1(O)CC[C@H]2[C@H](CC[C@@H]3[C@@H]2CC[C@]2(C)[C@@H](C(=O)Nc4ccc(C)nc4)CC[C@@H]32)C1 [Example 40]	< 100 nM
COC[C@@]1(O)CC[C@H]2[C@H](CC[C@@H]3[C@@H]2CC[C@]2(C)[C@@H](C(=O)Nc4ccc(C#N)nc4C)CC[C@@H]32)C1 [Example 41]	< 100 nM
COC[C@@]1(O)CC[C@H]2[C@H](CC[C@@H]3[C@@H]2CC[C@]2(C)[C@@H](C(=O)Nc4ccc(C#N)nc4Cl)CC[C@@H]32)C1 [Example 42]	< 100 nM
COC[C@@]1(O)CC[C@H]2[C@H](CC[C@@H]3[C@@H]2CC[C@]2(C)[C@@H](C(=O)Nc4ccc(C)nc4Cl)CC[C@@H]32)C1 [Example 43]	< 100 nM
COC[C@@]1(O)CC[C@H]2[C@H](CC[C@@H]3[C@@H]2CC[C@]2(C)[C@@H](C(=O)Nc4nc(C)ccc4Cl)CC[C@@H]32)C1 [Example 44]	100 to 1000 nM
COC[C@@]1(O)CC[C@H]2[C@H](CC[C@@H]3[C@@H]2CC[C@]2(C)[C@@H](C(=O)Nc4cccc(-n5ccc(C)n5)n4)CC[C@@H]32)C1 [Example 45]	< 100 nM
COC[C@@]1(O)CC[C@H]2[C@H](CC[C@@H]3[C@@H]2CC[C@]2(C)[C@@H](C(=O)Nc4ccc(C(F)(F)F)nc4C)CC[C@@H]32)C1 [Example 46]	< 100 nM
COC[C@@]1(O)CC[C@H]2[C@H](CC[C@@H]3[C@@H]2CC[C@]2(C)[C@@H](C(=O)Nc4ccc(-n5nccc5C)nc4C)CC[C@@H]32)C1 [Example 47]	< 100 nM

SMILES	IC50
COC[C@@]1(O)CC[C@H]2[C@H](CC[C@@H]3[C@@H]2CC[C@]2(C)[C@@H](C(=O)Nc4ccc(-c5ncc(F)cn5)nc4C)CC[C@@H]32)C1 [Example 48]	< 100 nM
COC[C@@]1(O)CC[C@H]2[C@H](CC[C@@H]3[C@@H]2CC[C@]2(C)[C@@H](C(=O)Nc4ccc(N5CCCC5=O)nc4C)CC[C@@H]32)C1 [Example 49]	< 100 nM
COC[C@@]1(O)CC[C@H]2[C@H](CC[C@@H]3[C@@H]2CC[C@]2(C)[C@@H](C(=O)Nc4cccc(N5CCCC5=O)n4)CC[C@@H]32)C1 [Example 50]	< 100 nM
COC[C@@]1(O)CC[C@H]2[C@H](CC[C@@H]3[C@@H]2CC[C@]2(C)[C@@H](C(=O)Nc4cccnc4C)CC[C@@H]32)C1 [Example 51]	< 100 nM
COC[C@@]1(O)CC[C@H]2[C@H](CC[C@@H]3[C@@H]2CC[C@]2(C)[C@@H](C(=O)Nc4ccc(-n5ccc(C)n5)nc4C)CC[C@@H]32)C1 [Example 52]	< 100 nM
CCOC[C@@]1(O)CC[C@H]2[C@H](CC[C@@H]3[C@@H]2CC[C@]2(C)[C@@H](C(=O)Nc4c5c(nn4C)CCCC5)CC[C@@H]32)C1 [Example 54]	100 to 1000 nM
CCOC[C@@]1(O)CC[C@H]2[C@H](CC[C@@H]3[C@@H]2CC[C@]2(C)[C@@H](C(=O)Nc4ccnn4C4CCCC4)CC[C@@H]32)C1 [Example 55]	< 100 nM
CCOC[C@@]1(O)CC[C@H]2[C@H](CC[C@@H]3[C@@H]2CC[C@]2(C)[C@@H](C(=O)Nc4cc(C5CC5)nn4C)CC[C@@H]32)C1 [Example 56]	< 100 nM
CCOC[C@@]1(O)CC[C@H]2[C@H](CC[C@@H]3[C@@H]2CC[C@]2(C)[C@@H](C(=O)Nc4c(C#N)cnn4C)CC[C@@H]32)C1 [Example 57]	> 1000 nM
CCOC[C@@]1(O)CC[C@H]2[C@H](CC[C@@H]3[C@@H]2CC[C@]2(C)[C@@H](C(=O)Nc4cncc(C#N)n4)CC[C@@H]32)C1 [Example 58]	< 100 nM
CCOC[C@@]1(O)CC[C@H]2[C@H](CC[C@@H]3[C@@H]2CC[C@]2(C)[C@@H](C(=O)Nc4nc(C)ccc4C)CC[C@@H]32)C1 [Example 59]	100 to 1000 nM
CCOC[C@@]1(O)CC[C@H]2[C@H](CC[C@@H]3[C@@H]2CC[C@]2(C)[C@@H](C(=O)Nc4cccc(C#N)n4)CC[C@@H]32)C1 [Example 60]	< 100 nM
CCOC[C@@]1(O)CC[C@H]2[C@H](CC[C@@H]3[C@@H]2CC[C@]2(C)[C@@H](C(=O)Nc4nc(C#N)ccc4C)CC[C@@H]32)C1 [Example 61]	100 to 1000 nM
CCOC[C@@]1(O)CC[C@H]2[C@H](CC[C@@H]3[C@@H]2CC[C@]2(C)[C@@H](C(=O)Nc4ncc(C)cc4C)CC[C@@H]32)C1 [Example 62]	100 to 1000 nM
CCOC[C@@]1(O)CC[C@H]2[C@H](CC[C@@H]3[C@@H]2CC[C@]2(C)[C@@H](C(=O)Nc4ccnc(C)n4)CC[C@@H]32)C1 [Example 63]	< 100 nM
CCOC[C@@]1(O)CC[C@H]2[C@H](CC[C@@H]3[C@@H]2CC[C@]2(C)[C@@H](C(=O)Nc4cccc(N5CCCC5=O)n4)CC[C@@H]32)C1 [Example 64]	< 100 nM
CCOC[C@@]1(O)CC[C@H]2[C@H](CC[C@@H]3[C@@H]2CC[C@]2(C)[C@@H](C(=O)Nc4ccc(N5CCCC5=O)nc4C)CC[C@@H]32)C1 [Example 65]	< 100 nM
CCOC[C@@]1(O)CC[C@H]2[C@H](CC[C@@H]3[C@@H]2CC[C@]2(C)[C@@H](C(=O)Nc4cccnc4F)CC[C@@H]32)C1 [Example 66, (3R,5R,8R,9R,10S,13S,14S,17S)-3-(ethoxymethyl)-N-(2-fluoropyridin-3-yl)-3-hydroxy-13-methylhexadecahydro-1H-cyclopenta[a]phenanthrene-17-carboxamide]	< 100 nM
CCC[C@@]1(O)CC[C@H]2[C@H](CC[C@@H]3[C@@H]2CC[C@]2(C)[C@@H](C(=O)Nc4ccc(C#N)cn4)CC[C@@H]32)C1 [Example 67, (3R,5R,8R,9R,10S,13S,14S,17S)-N-(5-cyanopyridin-2-yl)-3-hydroxy-13-methyl-3-propylhexadecahydro-1H-cyclopenta[a]phenanthrene-17-carboxamide]	< 100 nM
